Data published in ChEMBL document CHEMBL1201862, “PubChem BioAssay data set” (2004).
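Step 1: Grow cells in 96-well plates. Step 2: Expose to compound for 48 hours at 5 concentrations. Step 3: Interpolate endpoints linearly; if unreached, use highest concentration. GI50 marks 50% less growth.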 Active and inactive are the calls of the source. No stated cut-off is given here; in the data, active = GI50 up to about 1.1 µM and inactive = higher.

Assays:
Experiment in all cases: NCI-60 cell line screen, 48 h
A498 = tested on: A498
A549 = tested on: A549
ACHN = tested on: ACHN
CCRF-CEM = tested on: CCRF-CEM
HCT-116 = tested on: HCT-116
HCT-15 = tested on: HCT-15
Hs-578T = tested on: Hs-578T
K562 = tested on: K562
NCI-H226 = tested on: NCI-H226
NCI-H522 = tested on: NCI-H522
OVCAR-3 = tested on: OVCAR-3
OVCAR-8 = tested on: OVCAR-8
RPMI-8226 = tested on: RPMI-8226
SK-OV-3 = tested on: SK-OV-3
SN12C = tested on: SN12C
SNB-19 = tested on: SNB-19
SR = tested on: SR
UACC-257 = tested on: UACC-257
UO-31 = tested on: UO-31

| SMILES | GI50 (A498) | GI50 (A549) | GI50 (ACHN) | GI50 (CCRF-CEM) | GI50 (HCT-116) | GI50 (HCT-15) [µM] | GI50 (Hs-578T) | GI50 (K562) | GI50 (NCI-H226) | GI50 (NCI-H522) | GI50 (OVCAR-3) | GI50 (OVCAR-8) | GI50 (RPMI-8226) | GI50 (SK-OV-3) | GI50 (SN12C) | GI50 (SNB-19) | GI50 (SR) | GI50 (UACC-257) | GI50 (UO-31) |
| --- | --- | --- | --- | --- | --- | --- | --- | --- | --- | --- | --- | --- | --- | --- | --- | --- | --- | --- | --- |
| O=[N+]([O-])c1cccc(Cl)c1Oc1ccc(S(=O)(=O)N/C(=N\O)Nc2ccc(Cl)cc2)cc1 | 14.2 µM (inactive) | 13.9 µM (inactive) | 14.1 µM (inactive) | 2.55 µM (inactive) | 12.5 µM (inactive) | 15 | 5.79 µM (inactive) | 14.3 µM (inactive) | 21.2 µM (inactive) | 4.74 µM (inactive) | 10.3 µM (inactive) | 16.3 µM (inactive) | 6.01 µM (inactive) | 17.1 µM (inactive) | 12.3 µM (inactive) | 16.2 µM (inactive) | 6.14 µM (inactive) | 11.1 µM (inactive) | 9.1 µM (inactive) |
| CCOC(=O)c1ccc(NC(=O)O/N=C(/Cl)C(C)C)cc1 | 14.7 µM (inactive) | 21.7 µM (inactive) | 14 µM (inactive) | 0.953 µM (active) | 8.05 µM (inactive) | 8.59 | 29.5 µM (inactive) | 1.56 µM (inactive) | 24.4 µM (inactive) | 2.07 µM (inactive) | 5.28 µM (inactive) | 13.9 µM (inactive) | 4.49 µM (inactive) | 18.9 µM (inactive) | 19.9 µM (inactive) | 24 µM (inactive) | 2.87 µM (inactive) | 16.9 µM (inactive) | 17.8 µM (inactive) |
| C=CC[C@@]1([C@H](C=C)COCc2ccc(OC)cc2)CC[C@]2(C)OC(C)(C)[C@@H](c3ccccc3)N2C1=S | 71.3 µM (inactive) | 60.8 µM (inactive) | 43 µM (inactive) | 46.5 µM (inactive) | 35.9 µM (inactive) | 81.5 | 52.2 µM (inactive) | 27.4 µM (inactive) | 39.5 µM (inactive) | 20.9 µM (inactive) | 59.4 µM (inactive) | 48.5 µM (inactive) | 33.5 µM (inactive) | 86.5 µM (inactive) | 62.1 µM (inactive) | 35.2 µM (inactive) | 73.5 µM (inactive) | 34.8 µM (inactive) | > 100 µM (inactive) |
| CCCCCCCCCCCCOC1C(COCCN2CCCCC2)OC2OC(C)(C)OC21 (configuration not stated) | 14.8 µM (inactive) | 6.58 µM (inactive) | 2.12 µM (inactive) | 1.1 µM (active) | 1.67 µM (inactive) | 1.79 | 2 µM (inactive) | 1.11 µM (active) | 3.99 µM (inactive) | 1.59 µM (inactive) | 2.5 µM (inactive) | 1.8 µM (inactive) | 1.52 µM (inactive) | 4.08 µM (inactive) | 2.21 µM (inactive) | 2.5 µM (inactive) | < 0.01 µM (active) | 1.74 µM (inactive) | 1.59 µM (inactive) |
| COC(=O)C1(Cc2ccccc2)Cc2cc3c(cc2C1=O)CCC3 (configuration not stated) | 28.2 µM (inactive) | 16.6 µM (inactive) | 49.8 µM (inactive) | 22.6 µM (inactive) | 23.8 µM (inactive) | 31.6 | 49.7 µM (inactive) | 31.4 µM (inactive) | 27.4 µM (inactive) | 21.2 µM (inactive) | 40 µM (inactive) | 31.2 µM (inactive) | 23.1 µM (inactive) | 41.1 µM (inactive) | 37.3 µM (inactive) | 47.1 µM (inactive) | 21.9 µM (inactive) | 36.9 µM (inactive) | 34.5 µM (inactive) |
| CCOc1cccc(-c2cc(O)c3cc4c(cc3n2)OCO4)c1 | 78.9 µM (inactive) | 0.378 µM (active) | 0.51 µM (active) | 0.084 µM (active) | 0.0942 µM (active) | 0.189 | 0.163 µM (active) | 0.0516 µM (active) | 0.438 µM (active) | 0.0914 µM (active) | 0.182 µM (active) | 0.265 µM (active) | 0.318 µM (active) | 0.166 µM (active) | 0.191 µM (active) | 0.321 µM (active) | 0.0476 µM (active) | 1.95 µM (inactive) | 0.339 µM (active) |
| COc1cc(NCC2COc3c(ccc(OC)c3OC)C2=O)c([N+](=O)[O-])cc1OC (configuration not stated) | > 100 µM (inactive) | > 100 µM (inactive) | > 100 µM (inactive) | 53.2 µM (inactive) | > 100 µM (inactive) | > 100 | 95.3 µM (inactive) | 31 µM (inactive) | > 100 µM (inactive) | 55.7 µM (inactive) | > 100 µM (inactive) | > 100 µM (inactive) | 12.3 µM (inactive) | > 100 µM (inactive) | 70.1 µM (inactive) | > 100 µM (inactive) | 30.8 µM (inactive) | > 100 µM (inactive) | > 100 µM (inactive) |
| CC(=O)O[C@@H](C1C[C@@H](C)[C@H]2[C@@](O)(O1)[C@H](O)[C@@]1(C)C3=CC[C@H]4C(C)(C)[C@@H](OC5OCC(O)C(O)C5O)CC[C@@]45C[C@@]35CC[C@]21C)C(C)(C)O (some centres not stated) | 23.8 µM (inactive) | 30.6 µM (inactive) | 20.8 µM (inactive) | 2.82 µM (inactive) | 18.1 µM (inactive) | 28.4 | 30.1 µM (inactive) | 28.2 µM (inactive) | 20.6 µM (inactive) | 17.8 µM (inactive) | 20.7 µM (inactive) | 29.8 µM (inactive) | 18 µM (inactive) | 26.5 µM (inactive) | 22.8 µM (inactive) | 34.4 µM (inactive) | 14.7 µM (inactive) | 19.7 µM (inactive) | 30.2 µM (inactive) |
